test: Binding affinity for endothelin B receptor by measuring its ability to displace [125I]-ET-3 from porcine cerebellar tissue

Row | IC50 | Structure (SMILES)
1 | 36 µM | CCCCN(CCCC)C(=O)CN1C[C@H](c2ccc3c(c2)OCO3)[C@@H](C(=O)O)[C@@H]1C(C)(C)CCCC [(2R,3R,4S)-4-Benzo[1,3]dioxol-5-yl-1-dibutylcarbamoylmethyl-2-(1,1-dimethyl-pentyl)-pyrrolidine-3-carboxylic acid]
2 | 64 µM | CCCCN(CCCC)C(=O)CN1C[C@H](c2ccc3c(c2)OCO3)[C@@H](C(=O)O)[C@@H]1CC(C)(C)C=C(C)C [(2S,3R,4S)-4-Benzo[1,3]dioxol-5-yl-1-dibutylcarbamoylmethyl-2-(2,2,4-trimethyl-pent-3-enyl)-pyrrolidine-3-carboxylic acid]
3 | 62 µM | CCCCN(CCCC)C(=O)CN1C[C@H](c2ccc3c(c2)OCO3)[C@@H](C(=O)O)[C@@H]1CC(C)(C)CCC [(2S,3R,4S)-4-Benzo[1,3]dioxol-5-yl-1-dibutylcarbamoylmethyl-2-(2,2-dimethyl-pentyl)-pyrrolidine-3-carboxylic acid]
4 | 62 µM | CCCCN(CCCC)C(=O)CN1C[C@H](c2ccc3c(c2)OCO3)[C@@H](C(=O)O)[C@@H]1CCC1OCCCO1 [(2S,3R,4S)-4-Benzo[1,3]dioxol-5-yl-1-dibutylcarbamoylmethyl-2-(2-[1,3]dioxan-2-yl-ethyl)-pyrrolidine-3-carboxylic acid]
5 | > 100 µM | CCCCN(CCCC)C(=O)CN1C[C@H](c2ccc3c(c2)OCO3)[C@@H](C(=O)O)[C@@H]1CC(C)(C)C1OCCO1 [(2S,3R,4S)-4-Benzo[1,3]dioxol-5-yl-1-dibutylcarbamoylmethyl-2-(2-[1,3]dioxolan-2-yl-2-methyl-propyl)-pyrrolidine-3-carboxylic acid]
6 | > 100 µM | CCCCN(CCCC)C(=O)CN1C[C@H](c2ccc3c(c2)OCO3)[C@@H](C(=O)O)[C@@H]1CCC1OCCO1 [(2S,3R,4S)-4-Benzo[1,3]dioxol-5-yl-1-dibutylcarbamoylmethyl-2-(2-[1,3]dioxolan-2-yl-ethyl)-pyrrolidine-3-carboxylic acid]
7 | 29.3 µM | CCCCN(CCCC)C(=O)CN1C[C@H](c2ccc3c(c2)OCO3)[C@@H](C(=O)O)[C@@H]1CCC1SCCS1 [(2S,3R,4S)-4-Benzo[1,3]dioxol-5-yl-1-dibutylcarbamoylmethyl-2-(2-[1,3]dithiolan-2-yl-ethyl)-pyrrolidine-3-carboxylic acid]
8 | 47 µM | CCCCN(CCCC)C(=O)CN1C[C@H](c2ccc3c(c2)OCO3)[C@@H](C(=O)O)[C@@H]1CCc1ccco1 [(2S,3R,4S)-4-Benzo[1,3]dioxol-5-yl-1-dibutylcarbamoylmethyl-2-(2-furan-2-yl-ethyl)-pyrrolidine-3-carboxylic acid]
9 | 26 µM | CCCCN(CCCC)C(=O)CN1C[C@H](c2ccc3c(c2)OCO3)[C@@H](C(=O)O)[C@@H]1CCc1ccoc1 [(2S,3R,4S)-4-Benzo[1,3]dioxol-5-yl-1-dibutylcarbamoylmethyl-2-(2-furan-3-yl-ethyl)-pyrrolidine-3-carboxylic acid]
10 | 71 µM | CCCCN(CCCC)C(=O)CN1C[C@H](c2ccc3c(c2)OCO3)[C@@H](C(=O)O)[C@@H]1CC(C)CCC (stereo partly drawn) [(2S,3R,4S)-4-Benzo[1,3]dioxol-5-yl-1-dibutylcarbamoylmethyl-2-(2-methyl-pentyl)-pyrrolidine-3-carboxylic acid]
11 | > 100 µM | CCCCN(CCCC)C(=O)CN1C[C@H](c2ccc3c(c2)OCO3)[C@@H](C(=O)O)[C@@H]1CCc1ncco1 [(2S,3R,4S)-4-Benzo[1,3]dioxol-5-yl-1-dibutylcarbamoylmethyl-2-(2-oxazol-2-yl-ethyl)-pyrrolidine-3-carboxylic acid]
12 | 95 µM | CCCCN(CCCC)C(=O)CN1C[C@H](c2ccc3c(c2)OCO3)[C@@H](C(=O)O)[C@@H]1CC(CCC)CCC [(2S,3R,4S)-4-Benzo[1,3]dioxol-5-yl-1-dibutylcarbamoylmethyl-2-(2-propyl-pentyl)-pyrrolidine-3-carboxylic acid]
13 | 28.6 µM | CCCCN(CCCC)C(=O)CN1C[C@H](c2ccc3c(c2)OCO3)[C@@H](C(=O)O)[C@@H]1CCn1cccn1 [(2S,3R,4S)-4-Benzo[1,3]dioxol-5-yl-1-dibutylcarbamoylmethyl-2-(2-pyrazol-1-yl-ethyl)-pyrrolidine-3-carboxylic acid]
14 | 14.1 µM | CCCCN(CCCC)C(=O)CN1C[C@H](c2ccc3c(c2)OCO3)[C@@H](C(=O)O)[C@@H]1CCc1ccccn1 [(2S,3R,4S)-4-Benzo[1,3]dioxol-5-yl-1-dibutylcarbamoylmethyl-2-(2-pyridin-2-yl-ethyl)-pyrrolidine-3-carboxylic acid]
15 | 50 µM | CCCCN(CCCC)C(=O)CN1C[C@H](c2ccc3c(c2)OCO3)[C@@H](C(=O)O)[C@@H]1CCCC1OCCO1 [(2S,3R,4S)-4-Benzo[1,3]dioxol-5-yl-1-dibutylcarbamoylmethyl-2-(3-[1,3]dioxolan-2-yl-propyl)-pyrrolidine-3-carboxylic acid]
16 | 72 µM | CCCCN(CCCC)C(=O)CN1C[C@H](c2ccc3c(c2)OCO3)[C@@H](C(=O)O)[C@@H]1CCC(CC)CC [(2S,3R,4S)-4-Benzo[1,3]dioxol-5-yl-1-dibutylcarbamoylmethyl-2-(3-ethyl-pentyl)-pyrrolidine-3-carboxylic acid]
17 | 33.2 µM | CCCCN(CCCC)C(=O)CN1C[C@H](c2ccc3c(c2)OCO3)[C@@H](C(=O)O)[C@@H]1CCC=C(C)C [(2S,3R,4S)-4-Benzo[1,3]dioxol-5-yl-1-dibutylcarbamoylmethyl-2-(4-methyl-pent-3-enyl)-pyrrolidine-3-carboxylic acid]
18 | 36 µM | C=C(C)CCC[C@H]1[C@H](C(=O)O)[C@@H](c2ccc3c(c2)OCO3)CN1CC(=O)N(CCCC)CCCC [(2S,3R,4S)-4-Benzo[1,3]dioxol-5-yl-1-dibutylcarbamoylmethyl-2-(4-methyl-pent-4-enyl)-pyrrolidine-3-carboxylic acid]
19 | 35.8 µM | CCCCN(CCCC)C(=O)CN1C[C@H](c2ccc3c(c2)OCO3)[C@@H](C(=O)O)[C@@H]1CCCC(C)C [(2S,3R,4S)-4-Benzo[1,3]dioxol-5-yl-1-dibutylcarbamoylmethyl-2-(4-methyl-pentyl)-pyrrolidine-3-carboxylic acid]
20 | 34 µM | CCCCN(CCCC)C(=O)CN1C[C@H](c2ccc3c(c2)OCO3)[C@@H](C(=O)O)[C@@H]1CCCCC(F)(F)F [(2S,3R,4S)-4-Benzo[1,3]dioxol-5-yl-1-dibutylcarbamoylmethyl-2-(5,5,5-trifluoro-pentyl)-pyrrolidine-3-carboxylic acid]
21 | 48 µM | C/C=C(\C)CC[C@H]1[C@H](C(=O)O)[C@@H](c2ccc3c(c2)OCO3)CN1CC(=O)N(CCCC)CCCC [(2S,3R,4S)-4-Benzo[1,3]dioxol-5-yl-1-dibutylcarbamoylmethyl-2-((E)-3-methyl-pent-3-enyl)-pyrrolidine-3-carboxylic acid]
22 | 7 µM | CCCCN(CCCC)C(=O)CN1C[C@H](c2ccc3c(c2)OCO3)[C@@H](C(=O)O)[C@@H]1CC/C=C(/C)CC [(2S,3R,4S)-4-Benzo[1,3]dioxol-5-yl-1-dibutylcarbamoylmethyl-2-((Z)-4-methyl-hex-3-enyl)-pyrrolidine-3-carboxylic acid]
23 | 43.6 µM | CCCCN(CCCC)C(=O)CN1C[C@H](c2ccc3c(c2)OCO3)[C@@H](C(=O)O)[C@@H]1CCc1cccn1C [(2S,3R,4S)-4-Benzo[1,3]dioxol-5-yl-1-dibutylcarbamoylmethyl-2-[2-(1-methyl-1H-pyrrol-2-yl)-ethyl]-pyrrolidine-3-carboxylic acid]
